Results: patent publication US6063814A, “Phorbol esters as anti-neoplastic and white blood cell elevating agents” (priority 1997, dated 2000)
“And” between values parts separate entries of the source, which are not always exact repeats. Identical values can stand only once. “Also recorded” adds a separate entry of the source.

Test system: White Blood Cell (WBC)
Experiment: TPA induced white blood cell changes in patients with solid tumors undergoing chemotherapy
Assay type: in vivo, humans
Description: TPA solution in a sterile syringe was injected into 200 ml of saline and mixed well for i.v. infusion.
Patients undergoing chemotherapy for the treatment of solid tumors.
Subject No. (11), person. Diagnosis: malignant lymphoma. The patient had received adramycin, vincristine, and hormonal treatment. The blood cell counts were decreased to: Hb: 78 g/L, WBC: 0.7×10^9 /L, platelet: 245×10^9 /L. 0.25 mg TPA was administered to the patient 4 times. The blood cell counts improved to: Hb: 76 g/L, WBC: 6.8×10^9 /L, platelet: 331×10^9 /L. Chemotherapy was then continued for 5 more days, and followed by one dose of 0.5 mg TPA. The WBC count was maintained at 3.0×10^9 /L. The patient is still receiving treatment.
Subject No. (12), person. Diagnosis: brain tumor. Blood profile after chemotherapy was: Hb: 119 g/L, WBC: 3.0×10^9 /L, platelet: 399×10^9 /L. 0.25 mg TPA was given to the patient once. On the day after the TPA treatment, the blood profile was Hb: 123 g/L, WBC: 4.5×10^9 /L, platelet: 436×10^9 /L. The patient received further chemotherapy.
Subject No. (13), person. Diagnosis: lung cancer. After chemotherapy, their blood cell counts were decreased to: Hb: 76 g/L, WBC: 0.9×10^9 /L, platelet: 100×10^9 /L. 0.25 mg TPA was given to the patient twice. On the day after the TPA treatment, Hb: 74 g/L, WBC: 2.5×10^9 /L, platelet: 110×10^9 /L. The patient is still receiving treatment.
Subject No. (14), person. Diagnosis: breast cancer. The WBC after chemotherapy was 3.8×10^9 /L. 0.25 mg of TPA was given to the patient once. The WBC on the day after the TPA treatment was 8.0×10^9 /L.
Subject No. (15), person. Diagnosis: Esophageal Cancer. Surgery was performed, followed by chemotherapy using cisplatin, 5-fluorouracil. Blood profile (before TPA): WBC: 2.4×10^9 /L; neutrophil: 83%, lymphocyte: 17%; platelet: 150×10^9 /L; RBC: 3.43×10^12 /L; Hb: 107 g/L. TPA dosage: 0.25 mg. […] The cardiac, hepatic, renal and pulmonary functions were normal.
Subject No. (16), person. Diagnosis: Esophageal Cancer. Surgery was performed, followed by chemotherapy using VP16, MTX, MMC and cisplatin. TPA dose: 0.25 mg. Blood profile (before TPA): WBC: 2.4×10^9 /L; neutrophil: 67%; lymphocyte: 23%; platelet: 101×10^9 /L; RBC: 3.45×10^12 /L; Hb: 114 g/L. Blood profile (one day after TPA): WBC: 5.2×10^9 /L; neutrophil: 87%; lymphocyte: 13%; platelet 60×10^9 /L; RBC: 3.76×10^12 /L; Hb: 122 g/L. Blood profile (2 days after TPA administration).
Subject No. (17), person. Diagnosis: breast cancer. Surgery was performed, followed by chemotherapy using CTX, MTX, and 5-FU. TPA dose: 0.25 mg×2 (Second dose was 4 days after 1st dose). […] The cardiac, hepatic, renal and pulmonary functions were normal.
Subject No. (18), person. Diagnosis: Colon cancer. Surgery was performed, followed by chemotherapy using Cisplatin, VP16, and 5-FU. TPA dose: 0.25 mg×2 (2nd TPA dose was administered 24 hrs after 1st TPA dose). […] Cardiac hepatic, renal and pulmonary functions were normal.
Subject No. (19), person. Diagnosis: lung cancer metastasized to adrenal gland. Surgery was performed, followed by chemotherapy using MMC, VCR, and CTX. TPA dosage: 0.25 mg×2 (2nd TPA dose was administered 24 hrs after 1st TPA dose). […] Cardiac, hepatic renal and pulmonary functions were normal.
Subject No. (20), person. Diagnosis: esophageal cancer metastasized to liver, lung and brain. The patient received chemotherapy using Taxol, cisplatin, 5-FU and Semustial. Total TPA dosage: 2mg. Blood profile (before TPA): WBC: 0.7×10^9 /L; neutrophil: 29%; lymphocyte: 71%; platelet: N/A; RBC: 2.82×10^12 /L; Hb: 87 g/L. TPA treatment schedule. On the first and third day, 0.25 mg was given and on the 5th, 7th and 9th day 0.5 mg of TPA was given. […] Cardiac, hepatic, renal and pulmonary functions were normal.
Subject No. (21), person. Diagnosis: lymphoma metastasized to bone marrow. […]

[1] = 2 days after second TPA dose (0.25 mg×2)
[2] = 2 days after single TPA 0.25 mg
[3] = 4 days after single TPA 0.25 mg
[4] = 7 days after single TPA 0.25 mg
[5] = one day after second TPA dose (0.25 mg×2)
[6] = one day after single TPA 0.25 mg
[7] = solid tumor patients after TPA 0.25 mg doses
[8] = subject 11, malignant lymphoma, after 0.25 mg TPA 4 times
[9] = subject 17, 3 days after first TPA dose 0.25 mg
[10] = subject 17, 4 days after second TPA dose 0.25 mg
[11] = subject 20, 11th day, TPA total 2 mg over 9 days
[12] = subject 20, day 2, TPA total 2 mg over 9 days
[13] = subject 20, day 4, TPA total 2 mg over 9 days
[14] = subject 20, day 6, TPA total 2 mg over 9 days
[15] = subject 20, day 8, TPA total 2 mg over 9 days
[16] = subject 20, day 13, TPA total 2 mg over 9 days
[17] = subject 21, day 2, TPA total 2.5 mg, days 1-8
[18] = subject 21, day 4, TPA total 2.5 mg, days 1-8
[19] = subject 21, day 7, TPA total 2.5 mg, days 1-8
[20] = subject 21, day 9, TPA total 2.5 mg, days 1-8

## CCCCCCCCCCCCCC(=O)O[C@@H]1[C@@H](C)[C@@]2(O)[C@@H](C=C(CO)C[C@]3(O)C(=O)C(C)=C[C@@H]23)[C@@H]2C(C)(C)[C@]12OC(C)=O [TPA, Phorbol 12-Myristate-13-Acetate]
[1]
  Hb: 101 g/L
  WBC: 3.8e+09 L⁻¹ and 5e+09 L⁻¹
  lymphocyte: 16% and 20%
  neutrophil: 84% and 80%
  platelet: 8.4e+10 L⁻¹
[2]
  Hb: 109 g/L and 116 g/L
  RBC: 2.99e+12 L⁻¹
  WBC: 4.5e+09 L⁻¹ and 5.6e+09 L⁻¹
  lymphocyte: 20% and 19%
  neutrophil: 80% and 81%
  platelet: 6.4e+10 L⁻¹
[3]
  Hb: 112 g/L and 129 g/L
  RBC: 3.36e+12 L⁻¹
  WBC: 4.4e+09 L⁻¹ and 3.9e+09 L⁻¹
  platelet: 1.05e+11 L⁻¹
[4]
  Hb: 118 g/L and 138 g/L
  neutrophil: 82% and 48%
After and during chemotherapy
  recovery of infection fighting cells: help speed the rapid recovery of the infection fighting cells
[5]
  Hb: 74 g/L and 112 g/L and 93 g/L
  RBC: 4.1 ×10^12
  neutrophil: 60% and 82%
  platelet: 1.1e+11 L⁻¹ and 1.98e+11 L⁻¹
[6]
  Hb: 123 g/L and 109 g/L and 122 g/L and 116 g/L and 139 g/L and 126 g/L and 120 g/L
  RBC: 3.33e+12 L⁻¹ and 3.76e+12 L⁻¹
  neutrophil: 94% and 87% and 79% and 53% and 60% and 90% and 83%
Patients receiving chemotherapy, often
  time of elevation of white blood cell count: within one day
[7]
  duration of fever: 4 h
  fever, temperature after TPA: 38 °C and 39.2 °C and 37.8 °C and 39 °C
Solid tumor patients after TPA, one subject per block
  cardiac, hepatic, renal and pulmonary functions: normal; also recorded: same as before TPA treatment; also recorded: functioning normally
Solid tumor patients undergoing chemotherapy, one subject per block
  Symptoms after TPA: Chill, fever, local irritation and slight headache; also recorded: chills, fever, local irritation; also recorded: Chills at 5th day which lasted about one hour; also recorded: No chills and fever, only local irritation; also recorded: No chills. Low fever; also recorded: Stomach ache and diarrhea (which disappeared soon after)
Subject 11, after 5 more days chemotherapy and one dose 0.5 mg TPA
  WBC count maintained: 3e+09 L⁻¹
[8]
  Hb: 76 g/L
  WBC: 6.8e+09 L⁻¹
  platelet: 3.31e+11 L⁻¹
[9]
  Hb: 107 g/L
  RBC: 3.36e+12 L⁻¹
  WBC: 2.9e+09 L⁻¹
  lymphocyte: 17%
  neutrophil: 83%
  platelet: 1.22e+11 L⁻¹
[10]
  Hb: 112 g/L
  RBC: 3.49e+12 L⁻¹
  WBC: 4.4e+09 L⁻¹
  lymphocyte: 14%
  neutrophil: 86%
  platelet: 1.93e+11 L⁻¹
Subject 17, TPA 0.25 mg×2
  duration of chills: 2 h
[11]
  Hb: 61 g/L
  RBC: 2.91e+12 L⁻¹
  WBC: 2.7e+09 L⁻¹
  lymphocyte: 15%
  neutrophil: 85%
  platelet: 3.76e+10 L⁻¹
[12]
  Hb: 72 g/L
  RBC: 2.17e+12 L⁻¹
  WBC: 9e+08 L⁻¹
  lymphocyte: 34%
  neutrophil: 66%
  platelet: 8.2e+10 L⁻¹
[13]
  Hb: 58 g/L
  RBC: 2.09e+12 L⁻¹
  WBC: 1.1e+09 L⁻¹
  lymphocyte: 9%
  neutrophil: 91%
  platelet: 3.9e+10 L⁻¹
[14]
  Hb: 70 g/L
  RBC: 1.9 ×10^12
  WBC: 1.9e+09 L⁻¹
  lymphocyte: 5%
  neutrophil: 95%
  platelet: 4.3e+10 L⁻¹
[15]
  Hb: 61 g/L
  RBC: 1.71e+12 L⁻¹
  WBC: 2.3e+09 L⁻¹
  lymphocyte: 9%
  neutrophil: 91%
  platelet: 9e+10 L⁻¹
[16]
  Hb: 57 g/L
  RBC: 1.73e+12 L⁻¹
  WBC: 1.9e+09 L⁻¹
  lymphocyte: 10%
  neutrophil: 90%
  platelet: 3.2e+10 L⁻¹
[17]
  Hb: 117 g/L
  RBC: 4.15e+12 L⁻¹
  WBC: 6e+08 L⁻¹
  platelet: 6.9e+10 L⁻¹
[18]
  Hb: 109 g/L
  RBC: 3.95e+12 L⁻¹
  WBC: 6e+08 L⁻¹
  lymphocyte: 72%
  neutrophil: 28%
  platelet: 6.8e+10 L⁻¹
[19]
  Hb: 110 g/L
  RBC: 4.22e+12 L⁻¹
  WBC: 8e+08 L⁻¹
  lymphocyte: 12%
  neutrophil: 88%
  platelet: 6e+10 L⁻¹
[20]
  Hb: 112 g/L
  RBC: 4.02e+12 L⁻¹
  WBC: 1.5e+09 L⁻¹
  lymphocyte: 2%
  neutrophil: 80%
  platelet: 6.9e+10 L⁻¹
Subject 25, TPA 0.25 mg
  resolution of injection site symptoms: disappeared the second day after they appeared
Subject 25, TPA 0.25 mg, probably caused by infusion needle
  injection site reaction: red, swollen in appearance and painful
Subject 26, TPA 0.25 mg
  duration of raised temperature: 3 h
Three days after TPA 0.25 mg
  Hb: 123 g/L
  WBC: 2.9e+09 L⁻¹
  lymphocyte: 27%
  neutrophil: 73%
